The values that follow come from US6130220A, “Sulfamide-metalloprotease inhibitors” (Syntex (USA) Inc., priority 1999, dated 2000).

One assay deals with TNF-α. Kind of assay: Inhibition of LPS induced TNF-α production in mice in vivo. The conditions noted are these: s.c. compound, LPS 50 μg/mouse i.p. 1 h later, blood after 1.5 h. Here is the method: The activity of compounds of this invention in inhibiting the TNF-α release was determined, using a minor modification of the methods described in Zanetti, G.; Heumann, D., et. al., "Cytokine production after intravenous or peritoneal Gram-negative bacterial challenge in mice" J. Immunol., 148, 1890, (1992) and Sekut, L., Menius, J. A., et. al., "Evaluation if the significance of elevated levels of systemic and localized tumor necrosis factor in different animal models of inflammation" J. Lab. Clin. Med., 124, 813, (1994).
Female Balbic mice were anesthetized and injected subcutaneously with the test compounds dissolved in CMC vehicle or hydroxypropylmethyl cellulose based vehicle. Control animals received only the vehicle. After 1 h, LPS (50 μg/mouse, Sigma #13129, Sigma Chemical Co., St. Louis, Mo.) was injected intraperitoneally. After 1.5 h, blood was collected from the retro-rbital plexus region of the animals in a miicrotainer serum separator tube (Becton Dickinson, Cat. No. #5960, Becton Dickinson & Co., Franklin Lakes, N.J.). The sera was separated and the amount of TNF-α was determined using the EM-TNFA® kit (Endogen, Woburn, Mass.) by following the manufacturer's protocol.

In the next assay the target is Collagenase-III. The assay can be described thus: MMP enzymatic assay, hydrolysis of MCA-Pro-Leu-Gly-Leu-DPA-Ala-Arg-NH2, Collagenase-III. Type of assay: biochemical. The conditions noted are these: 37° C., pH 7.5, 2.5% DMSO. As to the method:
The propeptide and catalytic domain portion of human collagenase-3 was expressed in E. Coli as an N-terminal fusion protein with ubiquitin. After purification, the catalytic domain was released by treatment with 1 mM APMA for 1 hour at 37° C., and then purified by zinc chelate chromatography.
Rat collagenase-3 was purified in active form from the culture media of uterine smooth muscle cells as described in Roswit, W. T. et al., Arch. Biochem. Biophys., 225, 285-295 (1983).
The matrix metalloprotease inhibitory activity of compounds of this invention in vitro was determined based on the hydrolysis of MCA-Pro-Leu-Gly-Leu-DPA-Ala-Arg-NH2 (Bachem, Inc.) at 37° C. as described in Knight, C. G., et al., FEBS Lett., 296, 263-266 (1992).
The matrix metalloprotease enzyme was diluted with assay buffer (50 mM Tricine pH 7.5, 200 mM NaCl, 10 mM CaCl2, and 0.005% Brij-35) containing 10 μmole of above substrate dissolved in DMSO. Compounds of the invention dissolved in DMSO or only DMSO (control samples) were added such that the final DMSO concentration in all assays was 2.5%. The fluorescence changes were monitored with a Perkin-Elmer LS-50B flourimeter using an excitation wavelength of 328 nm and an emission wavelength of 393 nm.

In assay [1] the test system is TNF-α release from Human Monomac 6 cells. The assay can be described thus: Inhibition of TNF release in vitro, Monomac 6 cells, LPS/PMA. The class given is cell-based. As to conditions: 2 h; for inhibition at 10 µM: MONO-MAC-6, 10 μM, read-out: TNF-α % inhibition, Conc. 10 μM; for inhibition at 2 µM: MONO-MAC-6, 2 μM, read-out: TNF-α % inhibition, Conc. 2 μM. As to the method: The activity of compounds of this invention in inhibiting the TNF release was determined, using the a minor modification of the method described in Pradines-Figueres, A. and Raetz, C. R. H., J. Biol. Chem., 267 (32), 23261, (1992).
Human Monomac 6 cells (Ziegler-Heitbrock, H. W. L., et al., Int. J. Cancer, 41, 456, (1988)) were cultured at 37° C. in RPMI 1640 medium containing 10% fetal calf serum to a density of 1×10^5 cells/ml. 0.23 ml of these cells were placed in each well of a tissue culture plate and the cells were incubated for 15 min. The test compounds were dissolved in above mentioned medium and added and the incubation was continued for an additional 15 min. 10 μl of an lipopolysaccharide/phorbol-12-myristate-13-acetate (LPS/PMA) mixture was added such that the final concentration of lipopolysaccharide was 10 ng/ml and the final concentration of phorbol-12-myristate-13-acetate was 30 ng/ml. The cells were incubated for 2 h after which the plate was centrifuged and the medium was removed and analyzed for TNF content. The analysis was performed using a TNF Quantikine® Inmunoassay (R & D Systems, Minneapolis, Minn. 55413) by following the manufacturer's protocol.
The TNF-α inhibitory activity of test materials, i.e., the measure of the TNF-α content in the test group relative to the vehicle treated group (control group) was: […]

Assay [2] relates to collagen matrix of cartilage explants. The assay can be described thus: Degradation of cartilage plug in vitro (hydroxyproline release). Type of assay: cell-based. The conditions noted are these: bovine knee cartilage explants, IL-1-α 20 ng/ml, compounds at 10 to 300 nm, 21 days, hydroxyproline content vs control. As to the method:
The ability of the compounds of this invention to inhibit the degradation of the collagen matrix (as judged by release of hydroxyproline) was determined by the cartilage plug degradation assay in vitro by following a slight modification of the method described in Spirito, S., Doughty, E., et al., "Metalloproteinase inhibitors halt collagen breakdown in IL-1 induced bovine nasal cartilage cultures" Inflamm. Res., 44, Supp. 2: S131-S132, (1995).
Cartilage explants prepared from freshly sacrificed bovine knee joints were added to the culture medium (Dubelco's modified eagle medium, Gibco #21063-001, Gibco BRL Products, Gaithersburg, Md.), without phenol red, but with HEPES, and L-glutamine and fungizone 2.5 μglml, gentamicin 50 μg/ml, penicillin 100 U/ml, and streptomycin 100 μg/ml). The cultures were stimulated with IL-1-α at a final concentration of 20 ng/ml. Compounds of Formula (I), were added at concentrations between 10 and 300 nm in DMSO. The control samples contained only IL-1-α. The cultures were incubated at 37° C. in an atmosphere of air with 6% CO2 for 21 days during which time the medium was changed twice/week. The cartilage plugs were removed, hydrolyzed and the hydroxyproline content was determined. The MMP inhibitory activity of test materials is the measure of the hydroxyproline content in the test group relative to the vehicle treated group (control group).

The structures appear in SMILES notation. Bounds are passed on as bounds.

Turning to `O=C(NO)C1CCCCN1S(=O)(=O)N1CCCCC1` (racemic) [compound 233], in the assay on TNF-α, the TNF-α % inhibition was found to be 46%.
`O=C(NO)C1CCCCN1S(=O)(=O)N1CCN(c2ccc(Cl)cc2)CC1` (racemic) [compound 234, N-hydroxy-1-[4-(4-chlorophenyl)piperazine-1-sulfonyl]piperidine-2-(RS)-carboxamide] showed a TNF-α % inhibition in the assay with TNF-α of 46%.
Broadly, the IC50 is the concentration that inhibits the measured activity by half. The low end stands for higher potency, the high end for lower potency. For orientation: inhibition means the change of the read-out against control, counted positive when it falls. On Collagenase-III, `O=C(NO)C1CCCCN1S(=O)(=O)N1CCC(c2c[nH]c3cc(Cl)ccc23)CC1` (racemic) [compound 256, N-hydroxy-1-[4-(6-chloroindol-3-yl)piperidine-1-sulfonyl]piperidine-2-(RS)-carboxamide] yielded an IC50 of 33 nM. The inhibition at 10 µM in assay [1] came to 79%.
For `O=CN1CCN(S(=O)(=O)N2CCC(C(=O)c3ccc(Cl)cc3)CC2)C(C(=O)NO)C1` (racemic) [compound 262, N-hydroxy-1-[4-(4-chlorobenzoyl)piperidine-1-sulfonyl]-4-formylpiperazine-2-(RS)-carboxamide], the IC50 against Collagenase-III turned out to be 0.13 nM. The inhibition at 2 µM in assay [1] is 90%. In the assay on TNF-α, the TNF-α % inhibition came out at 50%.
At Collagenase-III, `COCCN(CC(=O)NO)S(=O)(=O)N1CCN(c2ccc(Cl)cc2)CC1` [compound 16] showed an IC50 of 21 nM. In addition, in assay [1], the inhibition at 10 µM is less than 15%.
Take `CC(C)[C@@H](NS(=O)(=O)N1CCN(c2ccc(C(F)(F)F)cn2)CC1)C(=O)NO` [compound 60]: in assay [2], the “% protection” value is reported as 89%.
Molecule `O=C(NO)[C@H](CSCc1ccccc1)NS(=O)(=O)N1CCN(c2ccc(Cl)cn2)CC1` [compound 102] registered an IC50 at Collagenase-III of 0.92 nM. Moreover, in assay [1], the inhibition at 10 µM was 56%.
The matching figures for `CC(C)[C@H](C(=O)NO)N(CCCc1cccnc1)S(=O)(=O)N1CCC(Oc2ccc(Br)cc2)CC1` [compound 105]: 0.59 nM and 20%.
The matching figures for `CC(C)[C@@H](NS(=O)(=O)N1CCC(c2nc(-c3ccccc3)c[nH]2)CC1)C(=O)NO` [compound 133, N-hydroxy-2-(R)-{[4-(4-phenylirnidazol-2-yl)piperidine-1-sulfonyl]amino}-3-methylbutyramide]: 18 nM and 32%.
In turn, `CC(C)[C@@H](NS(=O)(=O)N1CCC(C(=O)c2ccc(Cl)cc2)CC1)C(=O)NO` [compound 134] had a TNF-α % inhibition in the assay on TNF-α of 42%.
As to `C[C@@H](NS(=O)(=O)N1CCN(C(=O)Nc2ccc(Cl)cc2)CC1)C(=O)NO` [compound 177, N-hydroxy-2-(R)-{[4-(4-chlorophenylaminocarbonyl)piperazine-1-sulfonyl]amino}propionamide], on Collagenase-III, the IC50 was found to be 1.6 nM. In addition, the inhibition at 10 µM in assay [1] is less than 15%.
For the molecule `C[C@@H](NS(=O)(=O)N1CCC(c2cccc3ccccc23)CC1)C(=O)NO` [compound 216], in the assay on TNF-α, the TNF-α % inhibition came to 41%.
Same read-out and setting: for `O=C(NO)[C@H]1CCCCN1S(=O)(=O)N1CCCC1` [compound 232, N-hydroxy-1-(pyrrolidine-1-sulfonyl)piperidine-2-(R)-carboxamide] the value was 73%.
In the case of `O=C(c1ccc(Cl)cc1)C1CCN(S(=O)(=O)N2CCCC[C@@H]2C(=O)NO)CC1` [compound 242, N-hydroxy-1-[4-(4-chlorobenzoyl)piperidine-1-sulfonyl]piperidine-2-(R)-carboxamide], the IC50 against Collagenase-III stood at 0.063 nM. In addition, the inhibition at 10 µM in assay [1] is 85%. The “% protection” value in assay [2] is 27%.
As to `N#Cc1ccc2[nH]cc(C3CCN(S(=O)(=O)N4CCCC[C@@H]4C(=O)NO)CC3)c2c1` [compound 294, N-hydroxy-1-[4-(5-cyanoindol-3-yl)piperidine-1-sulfonyl]piperidine-2-(R)-carboxamide], the IC50 on Collagenase-III was determined as 340 nM. Also, the inhibition at 2 µM in assay [1] was 97%. In the assay with TNF-α, the TNF-α % inhibition turned out to be 90%.
As for `CN(C)C(=O)N1CCN(S(=O)(=O)N2CCC(C(=O)c3ccc(Cl)cc3)CC2)[C@@H](C(=O)NO)C1` [compound 298, N-hydroxy-1-[4-(4-chlorobenzoyl)piperidine-1-sulfonyl]-4-(N,N-dimethylaminocarbonyl)piperazine-2-(R)-carboxamide], on Collagenase-III, the IC50 came out at 0.2 nM. In addition, the inhibition at 2 µM in assay [1] stood at 70%.
For the molecule `CN(C)C(=O)N1CCN(S(=O)(=O)N2CCC(c3c[nH]c4c(F)c(F)c(F)c(F)c34)CC2)[C@@H](C(=O)NO)C1` [compound 309, N-hydroxy-4-(N,N-dimethylaminocarbonyl)-1-[4-(4,5,6,7-tetrafluoroindol-3-yl)piperidine-1-sulfonyl]piperazine-2-(R)-carboxamide], the IC50 against Collagenase-III was 500 nM. Also, the inhibition at 2 µM in assay [1] amounted to 94%. This molecule also gave a TNF-α % inhibition with TNF-α of 46%.
`CN(C)S(=O)(=O)N1CCN(S(=O)(=O)N2CCC(C(=O)c3ccc(Cl)cc3)CC2)[C@@H](C(=O)NO)C1` [compound 315, N-hydroxy-1-[4-(4-chlorobenzoyl)piperidine-1-sulfonyl]-4-(N,N-dimethylaminosulfonyl)piperazine-2-(R)-carboxamide]: the midpoint of inhibition on Collagenase-III, the IC50, lay at 0.1 nM. For the same molecule, in assay [1], the inhibition at 2 µM amounted to 86%.
Take `O=C(c1ccc(Cl)cc1)C1CCN(S(=O)(=O)N2CCN(C(=O)c3cnccn3)C[C@@H]2C(=O)NO)CC1` [compound 319, N-hydroxy-1-[4-(4-chlorobenzoyl)piperidine-1-sulfonyl]-4-(1,4-pyrazin-2-yl-carbonyl)-piperazine-2-(R)-carboxamide]: the inhibition at 2 µM in assay [1] stood at 81%. In the assay with TNF-α, this molecule came in with a TNF-α % inhibition of 50%.
The matching figures for `N#Cc1ccc2[nH]cc(C3CCN(S(=O)(=O)N4CCN(C(=O)N5CCOCC5)C[C@@H]4C(=O)NO)CC3)c2c1` [compound 321, N-hydroxy-4-(morpholin-4-ylcarbonyl)-1-[4-(5-cyanoindol-3-yl)piperdine-1-sulfonyl]piperazine-2-(R)-carboxamide]: 93% and 50%.
`CN(Cc1ccccc1)S(=O)(=O)N(CC(=O)NO)Cc1ccccc1` [compound 355] had a 50% inhibitory concentration (IC50) against Collagenase-III of 56 nM. In addition, in assay [1], the inhibition at 10 µM was less than 15%.
On the same counts, the results for `C[C@@H](NS(=O)(=O)N1CC=C(c2ccc(Cl)cc2)CC1)C(=O)NO` [compound 401] are 0.19 nM and 97%.
